In article PMC12700550, “DLL4^+ neutrophils promote Notch1-mediated endothelial PANoptosis to exacerbate acute lung injury in sepsis” (The Journal of Clinical Investigation, 2025):
Where “and” joins values, the source holds several entries; their conditions need not be identical. Equal entries are not always repeated.

Columns and labels:
IL-6 [1] = assay: Serum IL-6, CLP mice, ELISA; assay type: in vivo, mouse; settings: DLL4^+ neutrophil-injected CLP mice, 10 mg/kg, 20 h
Procedure: Sepsis was induced in mice by cecal ligation and puncture (CLP) as described previously ([45], [46]). Mice were anesthetized with isoflurane to a surgical plane and placed in a supine position. CLP was performed through a midline laparotomy. The abdomen was shaved and disinfected. Through a 2 cm midline incision, the cecum was exposed and then ligated with a 4-0 silk suture 1 cm proximal from the distal cecal extremity. For 20-hour CLP experiments, the cecum was punctured twice with a 22-gauge needle. A small amount of cecal content was extruded through both holes, and the ligated cecum was returned to the peritoneal cavity. The wound was closed in layers. For 10-day sepsis survival studies, the cecum was punctured once with a 22-gauge needle. A small amount of cecal content was extruded. Mice were allocated to the vehicle and adoptive transfer of DLL4^+ neutrophils or DLL4^– neutrophils groups. […]
Blood was collected by heart puncture and centrifuged at 1,500g and 4°C for 10 minutes, and the plasma was separated to assess cytokine levels using enzyme-linked immunosorbent assay (ELISA) kits (BD Biosciences). The plasma TNF-α (catalog 558534) and IL-6 (catalog 555240) levels were measured by ELISA.

p-MLKL [2] = assay: p-MLKL/MLKL (necroptosis) in PVECs cocultured with neutrophils, Western blot; assay type: cell-based, mouse; settings: for p-MLKL/MLKL (Figure 4I): 10 μM peptide, 16 h, individual replicates
Procedure: (§1) Wild-type PVECs (5 × 10^5) were cocultured with sorted DLL4^+ neutrophils (5 × 10^5) or DLL4^– neutrophils (5 × 10^5) and then treated with different dosages of peptides or 10 μM DAPT (Thermo Fisher Scientific), 10 μM NDI (GenScript), or 10 μM NDI scramble (GenScript). Notch1-knockdown PVECs (5 × 10^5) were cocultured with sorted DLL4^+ neutrophils (5 × 10^5). After 16 hours, neutrophils were washed away by PBS, and PVECs were collected for further experiments. Cell viability was evaluated by propidium iodide staining using the FITC Annexin V Apoptosis Detection Kit I (catalog 556547, BD Pharmingen). Cell death was quantified as the percentage of propidium iodide–positive cells by flow cytometry.
(§2) PVECs and lung tissue were collected in previous steps. Whole-cell proteins were extracted, and the protein concentration was measured using an ABC protein assay kit (catalog 5000002, Bio-Rad). Proteins were separated using NuPAGE 4%–12% Bis-Tris gels (Invitrogen), transferred to PVDF membranes, and immunoblotted with the antibodies indicated in the figure legends according to the manufacturer’s recommendations. The ZBP1 antibody (catalog PA5-20455; 1:1,000) used in this study was obtained from Thermo Fisher Scientific, and the c-GSDMD (catalog 10137S; 1:250), GSDMD (catalog 39754S; 1:1000), c-caspase-3 (catalog 9661L; 1:250), caspase-3 (catalog 9662S; 1:1,000), p-MLKL (catalog 37333S; 1:250), MLKL (catalog 37705S; 1:1,000), N1ICD (c-Notch1) (catalog 4147S; 1:250), and Notch1 (catalog 3608S; 1:1,000) antibodies were obtained from Cell Signaling Technology. GAPDH (catalog 60004-1-Ig; 1:10,000) and β-actin (catalog A5441, Sigma-Aldrich; 1:5,000) were obtained from ProteinTech. After the blots were incubated with primary antibodies, the membranes were washed 3 times, and the blots were subsequently incubated with the corresponding fluorescent secondary antibody (LI-COR). Bands were detected using an Odyssey FC Dual-Mode Imaging system 2800 (LI-COR).

rmNotch1 = target: T1, rmNotch1 (Mus musculus, UniProt Q01705); assay: BIAcore assay (surface plasmon resonance), rmDLL4 to immobilized rmNotch1; assay type: binding, murine; settings: 1 μg/mL NDI
T1 construct: purchased R&D Systems 5267-TK (rmNotch1); 1389-D4-050/CF (rmDLL4)
T1 sequence (Q9JI71 28-525 partner limits assumed): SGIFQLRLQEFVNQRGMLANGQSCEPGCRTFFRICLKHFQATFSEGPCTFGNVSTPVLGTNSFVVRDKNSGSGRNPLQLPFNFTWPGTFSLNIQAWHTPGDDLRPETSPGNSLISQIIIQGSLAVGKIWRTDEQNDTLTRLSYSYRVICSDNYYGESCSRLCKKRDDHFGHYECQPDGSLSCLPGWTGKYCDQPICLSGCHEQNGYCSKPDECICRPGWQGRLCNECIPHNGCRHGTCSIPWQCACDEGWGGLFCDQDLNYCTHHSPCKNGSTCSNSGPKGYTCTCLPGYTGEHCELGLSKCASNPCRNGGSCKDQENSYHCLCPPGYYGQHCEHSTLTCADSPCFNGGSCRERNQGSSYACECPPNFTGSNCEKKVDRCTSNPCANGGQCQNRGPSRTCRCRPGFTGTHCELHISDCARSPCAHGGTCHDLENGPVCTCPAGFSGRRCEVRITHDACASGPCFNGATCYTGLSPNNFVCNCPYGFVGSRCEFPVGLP
T1 sequence (Q01705 with tags, fused parts or gaps limits assumed): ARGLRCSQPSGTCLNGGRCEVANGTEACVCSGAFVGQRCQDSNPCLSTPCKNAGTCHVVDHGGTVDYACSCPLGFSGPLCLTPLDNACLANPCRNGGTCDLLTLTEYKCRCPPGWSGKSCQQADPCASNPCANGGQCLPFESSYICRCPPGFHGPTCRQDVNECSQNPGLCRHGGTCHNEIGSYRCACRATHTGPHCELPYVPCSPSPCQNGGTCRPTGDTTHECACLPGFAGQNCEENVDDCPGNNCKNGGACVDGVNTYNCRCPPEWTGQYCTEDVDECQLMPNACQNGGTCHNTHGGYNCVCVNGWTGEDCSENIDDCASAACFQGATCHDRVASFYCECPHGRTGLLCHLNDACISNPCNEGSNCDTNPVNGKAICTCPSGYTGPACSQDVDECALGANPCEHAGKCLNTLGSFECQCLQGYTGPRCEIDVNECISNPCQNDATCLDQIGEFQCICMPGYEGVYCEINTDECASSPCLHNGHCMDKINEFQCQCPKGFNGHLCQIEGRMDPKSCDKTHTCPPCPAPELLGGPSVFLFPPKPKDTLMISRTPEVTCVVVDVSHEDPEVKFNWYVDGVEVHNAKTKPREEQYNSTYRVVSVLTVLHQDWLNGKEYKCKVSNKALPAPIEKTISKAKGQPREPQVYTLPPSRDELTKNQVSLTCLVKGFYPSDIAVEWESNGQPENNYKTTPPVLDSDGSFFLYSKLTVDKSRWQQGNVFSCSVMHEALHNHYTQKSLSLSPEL
Procedure: To determine rmDLL4’s direct interaction with rmNotch1, surface plasmon resonance (OpenSPR, Nicoya) was performed. High-sensitivity nitrilotriacetic acid (HS-NTA) sensors were used. Binding reactions were performed in running buffer (PBS, 0.005% P20, pH 7.4). The HS-NTA sensor was first cleaned by injection with 10 mM HCl (150 μL) followed by injection of 150 μL of 350 mM EDTA. […] For the effect of NDI efficacy on rmDLL4 binding to rmNotch1, the same HS-NTA sensor was used. rmDLL4 at all the concentrations used for binding with rmNotch1 was preincubated with 1 μg/mL NDI for 30 minutes at room temperature, and then the complexes were injected to channels 1 and 2. Binding reactions were carried out with the same running buffer at a flow rate of 40 μL/min at 20°C. Channel 1 was used as a control to evaluate nonspecific binding. The real-time interaction data were analyzed by Trace Drawer (Nicoya). The signals from channel 1 were subtracted from channel 2 coated with the ligand for all samples. Data were globally fitted for 1:1 binding (one-to-one model).

p-MLKL [3] = assay: p-MLKL/MLKL in lungs of CLP mice, Western blot; assay type: in vivo, mouse; settings: 10 mg/kg NDI, 20 h; for lung p-MLKL/MLKL (Figure 5F): individual mice, 10 mg/kg
Procedure: (§3) Sepsis was induced in mice by cecal ligation and puncture (CLP) as described previously ([45], [46]). Mice were anesthetized with isoflurane to a surgical plane and placed in a supine position. CLP was performed through a midline laparotomy. The abdomen was shaved and disinfected. Through a 2 cm midline incision, the cecum was exposed and then ligated with a 4-0 silk suture 1 cm proximal from the distal cecal extremity. For 20-hour CLP experiments, the cecum was punctured twice with a 22-gauge needle. A small amount of cecal content was extruded through both holes, and the ligated cecum was returned to the peritoneal cavity. The wound was closed in layers. For 10-day sepsis survival studies, the cecum was punctured once with a 22-gauge needle. A small amount of cecal content was extruded. Mice were allocated to the vehicle and adoptive transfer of DLL4^+ neutrophils or DLL4^– neutrophils groups. Adoptive transfer mice received a retro-orbital injection of 1 × 10^6 cells per mouse DLL4^+ neutrophils or DLL4^– neutrophils in […] phosphate-buffered saline (PBS) immediately after abdominal closure in both the 20-hour experiments and the survival study. Vehicle groups received an equivalent volume of PBS, while treatment groups received NDI 10 mg/kg in […] PBS via retro-orbital injection after CLP. This dose was chosen primarily on the basis of our laboratory’s prior experience, we have consistently used this dose in mouse CLP models with reproducible efficacy and without observable toxicity ([39], [44]). Sham-operated animals underwent a laparotomy without CLP. After closure, the mice received a subcutaneous injection of 0.5 mL of normal saline to overcome surgery-induced dehydration. […]
PVECs and lung tissue were collected in previous steps. Whole-cell proteins were extracted, and the protein concentration was measured using an ABC protein assay kit (catalog 5000002, Bio-Rad). […] Bands were detected using an Odyssey FC Dual-Mode Imaging system 2800 (LI-COR).

ZBP1 = ZBP1 protein in PVECs cocultured with neutrophils, Western blot; assay type: cell-based, mouse; settings: for ZBP1 protein level (Figure 4F): 10 μM peptide, 16 h, individual replicates
Procedure: as §1, §2

IL-6 [4] = assay: Lung IL-6 mRNA, CLP mice; assay type: in vivo, mouse; settings: 20 h; for lung IL-6 mRNA (Figure 6G): 10 mg/kg NDI, vs sham, individual mice
Procedure: as §3, with “dehydration. For 20-hour experiments, animals were not injected with antibiotics; however, for survival studies, animals were given 0.5 mg per kg body weight imipenem (lot 4D21K05, WG Critical Care LLC) subcutaneously in 0.5 mL saline once at the end of CLP. All mice were subcutaneously injected with a single dose of 0.1 mg/kg buprenorphine after CLP.” for “dehydration.”

[5] = 10 μM NDI, DLL4^+ neutrophil coculture

## ECAGSPCHNGGTCEDGI [NDI]
IL-6 [1]
  effect on serum IL-6: significantly reduced the serum levels of hepatic and cell injury markers and proinflammatory cytokines
p-MLKL [2]; [5]
  effect on p-MLKL: significantly reduced these markers of PANoptosis
p-MLKL [2]; DLL4^+ neutrophil coculture
  p-MLKL/MLKL (Figure 4I): 1.115 and 1.398 and 1.246 and 1.299 and 0.9429 and 1.577 and 2.352
p-MLKL [2]; DLL4^– neutrophil coculture
  p-MLKL/MLKL (Figure 4I): 0.4818 and 0.8655 and 0.6799 and 0.9484
rmNotch1
  effect on Notch1-DLL4 interaction: significantly disrupted Notch1-DLL4 interaction
p-MLKL [3]; DLL4^+ neutrophils + CLP
  lung p-MLKL/MLKL (Figure 5F): 1.846 and 1.579 and 1.945 and 1.685 and 1.856 and 1.651 and 0.9594
p-MLKL [3]; DLL4^+ neutrophils/sepsis
  effect on lung p-MLKL: attenuated the expression/activation
p-MLKL [3]; DLL4^– neutrophils + CLP
  lung p-MLKL/MLKL (Figure 5F): 1.556 and 0.2214 and 0.5541 and 0.7582 and 0.5214 and 0.9855
ZBP1; [5]
  effect on ZBP1 protein: significantly attenuated by NDI treatment
ZBP1; 10 μM NDI, DLL4^– neutrophil coculture
  effect on ZBP1, c-GSDMD, c-caspase-3, and p-MLKL: less effect on the DLL4^– neutrophil coculture group
ZBP1; DLL4^+ neutrophil coculture
  ZBP1 protein level (Figure 4F): 3.384 and 1.384 and 0.9406 and 0.8744 and 0.4031 and 0.6648 and 0.9901 and 0.7708 and 1.063 and 1.037 and 1.784 and 1.376 and 1.24 and 1.14
ZBP1; DLL4^– neutrophil coculture
  ZBP1 protein level (Figure 4F): 1.4609 and 1.716 and 1.338 and 0.9958 and 0.6394
IL-6 [4]; DLL4^+ neutrophil-injected CLP mice, 10 mg/kg
  effect on lung IL-6 mRNA: significantly decreased the mRNA expression of TNF-α, IL-6, and KC in lung tissues
IL-6 [4]; DLL4^+ neutrophils + CLP
  lung IL-6 mRNA (Figure 6G): 1.4984 fold change and 1.1005 fold change and 1.349 fold change and 4.056 fold change and 2.97 fold change and 2.032 fold change and 0.08381 fold change and 1.663 fold change and 5.861 fold change and 2.132 fold change and 6.132 fold change
IL-6 [4]; DLL4^– neutrophils + CLP
  lung IL-6 mRNA (Figure 6G): 2.369 fold change and 4.979 fold change and 4.806 fold change and 5.561 fold change and 5.531 fold change and 4.244 fold change and 1.214 fold change and 2.2297 fold change and 4.655 fold change
